Test results reported in PMC4387594, “Pentacycloundecane lactam vs lactone norstatine type protease HIV inhibitors: binding energy calculations and DFT study” (Journal of Biomedical Science, 2015).
Where two headings read alike, the source gives them in different places. Peptide text beside a SMILES is read from it. * marks the point of attachment. X2 = O=C1OC2(C(=O)*)C3C4CC5C6C4C2C6C1(O)C53; X1 = O=C1NC2(N*)C3C4CC5C6C4C2C6C1(O)C53

Key:
[1] = 1H NMR, ref [19],[20], cited from earlier work
Method: It is therefore most likely that the lactam form is the active form in aqueous solution (also used for the IC50 experiments). The conformation for the amide side chain with the lowest energy was determined. In both cases this conformation involved intramolecular hydrogen bonding (O5 ...

[2] = biological target: T1, wild type C-South African (C-SA) HIV-1 protease (Human immunodeficiency virus type 1 group M subtype B, UniProt P12497, H557K/I503V/I581L/L507I/L577M/M524I/R529K/T500S); test: in vitro HIV-1 protease inhibition (C-SA PR); format: biochemical, HIV-1 subtype C
T1 construct: Over-expression, extraction and purification of the C-SA protease and in vitro HIV-1 protease activity were reported in our earlier publications; made in house
Source text: Over-expression, extraction and purification of the C-SA protease and in vitro HIV-1 protease activity were reported in our earlier publications. Genetic diversity among HIV-1 subtypes ranges between 25 and 35% at the nucleotide level and variation within subtypes vary from 15 to 20% [48, 49].
The HIV-1 subtype C PR that predominates in South Africa (C-SA PR) is defined as the consensus subtype C PR [51]. This C-SA PR contains eight polymorphic sites (T12S, I15V, L19I, M36I, R41K, H69K, L89M, and I93L) in relation to the wild-type subtype B HIV-1 PR [52].
The procedures followed were the same as reported before ^12,13.

| Structure (SMILES) | IC50 [2] | further results |
| --- | --- | --- |
| CC(=O)NC12NC(=O)C3(O)C4C5CC(C6C5C3C61)C42 (racemic) [PCU-lactam] | – | tautomer preference ([1]; (CD3)2SO): major tautomer |
| CC(=O)NC12N=C(O)C3(O)C4C5CC(C6C5C3C61)C42 (racemic) [PCU-lactim] | – | tautomer preference ([1]; dioxane): dominant |
| COC(=O)N[C@H](C(=O)N[C@@H](Cc1ccccc1)[C@@H](O)CN(Cc1ccc(-c2ccccn2)cc1)NC(=O)[C@@H](NC(=O)OC)C(C)(C)C)C(C)(C)C [Atazanavir, reference compound] | 0.004 ± 0.00071 µM | – |
| CC[C@H](C)[C@H](NC(=O)[C@@H](N)CO)C(=O)N[C@@H](C)C(=O)N[C@@H](CCC(=O)O)C(=O)NC12NC(=O)C3(O)C4C5CC(C6C5C3C61)C42 (some centres unmarked) [PCU-lactam-NH-EAIS] (H-SIAE-X1) | ~0.078 µM | – |
| CC[C@H](C)[C@H](NC(=O)[C@H](C)NC(=O)C12OC(=O)C3(O)C4C5CC(C6C5C3C61)C42)C(=O)N[C@@H](CO)C(N)=O (some centres unmarked) [PCU-lactone-CO-AIS] | 0.83 µM | – |
| CC[C@H](C)[C@H](NC(=O)[C@H](C)NC(=O)[C@H](CCC(=O)O)NC(=O)C12OC(=O)C3(O)C4C5CC(C6C5C3C61)C42)C(=O)N[C@@H](CO)C(N)=O (some centres unmarked) [PCU-lactone-CO-EAIS] (X2-EAIS-NH2) | 0.85 ± 0.18 µM | IC50 relative to the corresponding cage lactam peptide ([2]; C-SA HIV-1 protease): eleven times weaker |
| CC[C@H](C)[C@H](NC(=O)[C@H](C)NC(=O)[C@H](CCC(=O)O)NC(=O)C12OC(=O)C3(O)C4C5CC(C6C5C3C61)C42)C(N)=O (some centres unmarked) [PCU-lactone-CO-EAI] | 2.6 µM | – |
